Experimental data from paper PMC6688628, “N-Substituted Pyrrole Derivative 12m Inhibits HIV-1 Entry by Targeting Gp41 of HIV-1 Envelope Glycoprotein” (Frontiers in Pharmacology, 2019).
Read-outs that look alike come from different tables or passages of the source.

Assays:
[1] = test system: HIV-1 92UG029; assay: Anti-HIV-1 activity, primary strain 92UG029; format: cell-based; conditions: luciferase readout, mean ± SD
[2] = test system: HIV-1 93/BR/020; assay: microbe, parasite or virus in culture; format: cell-based
Experimental: (§1) The HIV-1 replication-inhibiting activity of compounds was determined as previously described ([Li et al., 2013]). Briefly, 1 × 10^4 TZM-bl or MT-2 cells were infected with primary HIV-1 strains or T20-resistant HIV-1 strains (100 TCID50) in 200 µl of RPMI-1640 medium containing 10% FBS in the presence or absence of compounds at graded concentrations for 12 h. The culture medium was replaced with fresh medium without the compounds. After culture for an additional 48 h, supernatants or cells were collected from each well. For the primary HIV-1 strains, the cells were treated using a luciferase kit. Briefly, the cells were lysed with the lysis reagent and were transferred into a 96-well flat-bottom luminometer plate after three washes with phosphate-buffered saline (PBS) (Costar Corning Inc., Corning, NY), followed by addition of the luciferase substrate included in the luciferase kit (Promega Corp., Madison, WI). The luciferase activity was measured immediately by an Ultra 384 microplate reader (Tecan, Research Triangle Park, NC). T20 was used as a positive control. For the T20-resistant HIV-1 strains, 100 µl of culture supernatant was mixed with 100 µl of 5% Triton X-100. Then, those virus lysates were assayed for p24 antigen by enzyme linked immunosorbent assay (ELISA) as previously described ([Li et al., 2010]). Absorbance at 450 nm was recorded in an ELISA reader (Ultra 384, Tecan). EC50 values were calculated using the computer program CalcuSyn ([Chou and Talalay, 1984]).

[3] = test system: HIV-1 BCF02; assay: microbe, parasite or virus in culture; format: cell-based
Experimental: as §1

[4] = test system: HIV-1 US4 (GS 007); assay: microbe, parasite or virus in culture; format: cell-based
Experimental: as §1

[5] = test system: HIV-1 NL4-3D36G; format: cell-based; conditions: T20-sensitive parent strain, p24 ELISA, mean ± SD
[6] = test system: HIV-1JR-FL Env mutant K574A pseudovirus; format: cell-based; conditions: compared with wild-type HIV-1JR-FL pseudovirus
[7] = test system: HIV-1 NL4-3(36G)V38A,N42D; conditions: T20-resistant NL4-3(36G)V38A,N42D; p24 ELISA; mean ± SD
[8] = test system: HIV-1 NL4-3(36G)V38A; conditions: T20-resistant NL4-3(36G)V38A; p24 ELISA; mean ± SD
[9] = test system: HIV-1 NL4-3(36G)N42T,N43K; conditions: T20-resistant NL4-3(36G)N42T,N43K; p24 ELISA; mean ± SD
[10] = test system: HIV-1 NL4-3(36G)V38E,N42S; conditions: T20-resistant NL4-3(36G)V38E,N42S; p24 ELISA; mean ± SD
[11] = test system: HIV-1 NL4-3(36G)V38A,N42T; conditions: T20-resistant NL4-3(36G)V38A,N42T; p24 ELISA; mean ± SD
[12] = test system: R5 and X4 HIV-1 strains (Env pseudotyped viruses); format: cell-based
[13] = test system: HIV-1; set-up: method as in Jiang et al., 2004; conditions: inhibition of HIV-1 entry; ref Jiang et al., 2004; cited from earlier work

Compound | IC50 [7] | IC90 [7] | IC50 [8] | IC90 [8] | IC50 [9] | IC90 [9] | IC50 [10] | IC90 [10] | IC50 [11] | IC90 [11] | further results
COc1ccc(S(=O)(=O)[O-])cc1N=Nc1c(S(=O)(=O)[O-])cc2cc(Nc3nc(Nc4ccccc4)nc(Nc4cc(C)c(N=Nc5cc(S(=O)(=O)[O-])cc6cc(S(=O)(=O)[O-])cc(O)c56)cc4OC)n3)ccc2c1O.[Na+].[Na+].[Na+].[Na+] [ADS-J1] | 0.65 ± 0.18 µM | 8.2 ± 2.65 µM | 0.16 ± 0.04 µM | 0.4 ± 0.05 µM | 0.61 ± 0.25 µM | 4.24 ± 1.21 µM | 0.11 ± 0.01 µM | 0.33 ± 0.01 µM | 0.62 ± 0.16 µM | 8.39 ± 1.55 µM | IC50 [1]: 20.6 ± 5.29 µM; IC90 [1]: 32.1 ± 6.71 µM; IC50 ([2]; primary strain 93/BR/020, luciferase readout, mean ± SD): 13 ± 3.49 µM; IC90 ([2]; primary strain 93/BR/020, luciferase readout, mean ± SD, read-out: IC90): 26.9 ± 4.3 µM; IC50 ([3]; primary strain BCF02, luciferase readout, mean ± SD, read-out: IC50): 1.45 ± 0.26 µM; IC90 ([3]; primary strain BCF02, luciferase readout, mean ± SD, read-out: IC90): 3.06 ± 0.42 µM; IC50 ([4]; primary strain US4 (GS 007), luciferase readout, mean ± SD, read-out: IC50): 4.62 ± 0.76 µM; IC90 ([4]; primary strain US4 (GS 007), luciferase readout, mean ± SD, read-out: IC90): 9.9 ± 1.44 µM; IC50 [5]: 0.94 ± 0.03 µM; IC90 [5]: 2.03 ± 0.2 µM; inhibitory activity against K574A mutant pseudovirus [6]: exerted inhibitory activity
c1cc(CN2CCCNCCNCCCNCC2)ccc1CN1CCCNCCNCCCNCC1 [AMD3100] |  |  |  |  |  |  |  |  |  |  | inhibitory activity against the R5 and X4 HIV-1 strains [12]: strong inhibitory activity
O=C(O)c1cc(-n2cccc2)ccc1Cl [NB-64] |  |  |  |  |  |  |  |  |  |  | effective concentration for 50% inhibition (EC50) [13]: on the µM level
Enfuvirtide | 0.895 ± 0.31 µM | > 2 µM | 0.279 ± 0.082 µM | > 2 µM | > 2 µM | > 2 µM | > 2 µM | > 2 µM | > 2 µM | > 2 µM | IC90 ([2]; 93/BR/020, 12 h): 0.313 ± 0.022 µM; IC50 ([3]; BCF02, 12 h): 0.05 ± 0.022 µM; IC90 ([3]; BCF02, 12 h): 0.502 ± 0.338 µM; IC50 ([4]; US4 (GS 007, 12 h)): 0.059 ± 0.01 µM; IC90 ([4]; US4 (GS 007, 12 h)): 1.43 ± 0.443 µM; inhibitory activity against the R5 and X4 HIV-1 strains ([12]; positive controls, single-cycle pseudovirus infection): strong inhibitory activity
